Measurements as given in article PMC10065799, “High-throughput profiling of sequence recognition by tyrosine kinases and SH2 domains using bacterial peptide display” (eLife, 2023).
Like-named read-outs stand apart in the source and are kept apart here. Square brackets hold non-standard residues; d marks the D form. pY = N[C@@H](Cc1ccc(OP(=O)(O)O)cc1)C(=O)O

T1: c-Abl kinase domain (Mus musculus, UniProt P00520)
T1 sequence (P00520 242-493 limits assumed): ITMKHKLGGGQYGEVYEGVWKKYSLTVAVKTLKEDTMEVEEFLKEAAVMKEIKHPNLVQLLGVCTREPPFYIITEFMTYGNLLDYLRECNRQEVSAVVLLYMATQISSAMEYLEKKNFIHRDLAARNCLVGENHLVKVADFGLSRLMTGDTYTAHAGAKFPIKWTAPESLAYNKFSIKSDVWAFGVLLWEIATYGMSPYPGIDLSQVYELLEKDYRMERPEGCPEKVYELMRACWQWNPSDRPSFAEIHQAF

B1: CCDC39_Y593 phosphopeptide Ac-QRKQQL(pY)TAMEEG-NH2 (peptide)
peptide: Ac-QRKQQL[pY]TAMEEG-NH2
SMILES: CSCC[C@H](NC(=O)[C@H](C)NC(=O)[C@@H](NC(=O)[C@H](Cc1ccc(OP(=O)(O)O)cc1)NC(=O)[C@H](CC(C)C)NC(=O)[C@H](CCC(N)=O)NC(=O)[C@H](CCC(N)=O)NC(=O)[C@H](CCCCN)NC(=O)[C@H](CCCNC(=N)N)NC(=O)[C@H](CCC(N)=O)NC(C)=O)[C@@H](C)O)C(=O)N[C@@H](CCC(=O)O)C(=O)N[C@@H](CCC(=O)O)C(=O)NCC(N)=O
notes: source: synthetic peptide (synthesized in-house, RP-HPLC purified)
B2: ACTB_Y240 phosphopeptide Ac-QSLEKS(pY)ELPDGG-NH2 (peptide)
peptide: Ac-QSLEKS[pY]ELPDGG-NH2
SMILES: CC(=O)N[C@@H](CCC(N)=O)C(=O)N[C@@H](CO)C(=O)N[C@@H](CC(C)C)C(=O)N[C@@H](CCC(=O)O)C(=O)N[C@@H](CCCCN)C(=O)N[C@@H](CO)C(=O)N[C@@H](Cc1ccc(OP(=O)(O)O)cc1)C(=O)N[C@@H](CCC(=O)O)C(=O)N[C@@H](CC(C)C)C(=O)N1CCC[C@H]1C(=O)N[C@@H](CC(=O)O)C(=O)NCC(=O)NCC(N)=O
notes: as for B1
B3: ACTB_Y240_P243L phosphopeptide Ac-QSLEKS(pY)ELLDGG-NH2 (peptide)
peptide: Ac-QSLEKS[pY]ELLDGG-NH2
SMILES: CC(=O)N[C@@H](CCC(N)=O)C(=O)N[C@@H](CO)C(=O)N[C@@H](CC(C)C)C(=O)N[C@@H](CCC(=O)O)C(=O)N[C@@H](CCCCN)C(=O)N[C@@H](CO)C(=O)N[C@@H](Cc1ccc(OP(=O)(O)O)cc1)C(=O)N[C@@H](CCC(=O)O)C(=O)N[C@@H](CC(C)C)C(=O)N[C@@H](CC(C)C)C(=O)N[C@@H](CC(=O)O)C(=O)NCC(=O)NCC(N)=O
notes: as for B1

Assays:
[1] = molecular target: T2, c-Src kinase domain (Homo sapiens, UniProt P12931); experiment: pTyr-Var library bacterial peptide display kinase screen (enrichment scores); type: biochemical;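 also: log2 fold change in enrichment of variant over reference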
[2] = molecular target: T1, c-Abl kinase domain; experiment: as above; type: biochemical
[3] = system: Fer kinase domain; experiment: as above; type: biochemical, mouse; settings: sheet "Fer";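 also: log2 fold change in enrichment of variant over reference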
[4] = system: EPHB1 kinase domain; experiment: as above; type: biochemical, human; settings: for Screen: sheet EPHB1, effect of the variant peptide relative to its reference peptide in the pTyr-Var library screen (enrichment scores); for Screen (variant relative to reference peptide, measured in the pTyr-Var library screen): sheet "EPHB1", variant seq vs reference seq, bacterial peptide display enrichment
[5] = system: EPHB2 kinase domain; experiment: as above; type: biochemical, human; settings: sheet EPHB2;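 also: log2 fold change in enrichment of variant over reference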
[6] = molecular target: T1, c-Abl kinase domain; experiment: RP-HPLC assay to measure peptide phosphorylation kinetics; type: biochemical; settings: purified peptide substrate
[7] = molecular target: T2, c-Src kinase domain; experiment: as above; type: biochemical; settings: purified peptide substrate
Protocol: To validate the enrichment scores observed in the c-Src screening data, the phosphorylation rates were measured in vitro with the purified catalytic domain of c-Src and synthetic 11-residue peptides derived from sequences in the pTyr-Var library. […] Reactions were initiated by adding 1 mM ATP. At various time points, 100 μL aliquots were removed and quenched by the addition of EDTA to a final concentration of 25 mM. Each time point sample was analyzed by analytical RP-HPLC, monitoring absorbance at 214 nm. Forty μL of each time point was injected onto a C18 column (ZORBAX 300 SB-C18, 5 μm, 4.6x150 mm). The solvent system used was water with 0.1% trifluoroacetic acid (solvent A) and acetonitrile with 0.1% trifluoroacetic acid (solvent B). […] The fractional product peak area was plotted as a function of reaction time, and the initial linear regime of this plot was fitted to a straight line to determine a reaction rate. Rates were corrected for substrate and enzyme concentration. Reactions were done in triplicate or quadruplicate.

[8] = molecular target: human c-Src SH2 domain (residues 143-250) (human, UniProt P12931-1 143-250, biotin on the Avi tag (co-expression with the biotin ligase BirA)); experiment: fluorescence polarisation; competition: unlabeled phosphopeptide serially diluted against 30 nM fluorescent peptide and 240 nM (1.5 x KD) c-Src SH2; same buffer; 25 °C; cubic binding equation; settings: both partners purified
[9] = sheet "Src", effect of the variant peptide relative to its reference peptide in the pTyr-Var library screen
[10] = value of the variant peptide against its reference peptide in the pTyr-Var library screen with Fer
[11] = effect of variant peptide relative to its reference peptide in the pTyr-Var library screen (enrichment scores)
[12] = variant peptide relative to its reference peptide, pTyr-Var library screen enrichment
[13] = sheet "Src", variant peptide versus its reference peptide in the pTyr-Var library screen
[14] = effect of the variant relative to its reference peptide in the pTyr-Var library screen

Row | Molecule | Screen [1, 9] | Screen [3, 10] | Screen [4] | Screen [5, 11] | further results
1 | ELANLYHHVWM [BICD2_Y538_C542W] | 0.8025 | 2.831 | 3.328 | 1.55 | Screen ([2]; fig5-data2, sheet "Abl", Screen for the variant/reference peptide pair, pTyr-Var library): -0.8428
2 | ALTDNYMFVVI [HAGH_Y61_L64V_YF] |  | 0.9324 | 0.4544 | 0.5365 | 
3 | HLMLQYDAVVN [SLC25A32_Y152_R147H] |  |  |  | 1.051 | Screen [3, 12]: 1.415
4 | QVQQIYSDSDL [MIB1_Y376_R371Q] | 0.02886 | 0.8951 |  | 1.36 | 
5 | Ac-SVEELYAIPPD-NH2 [PEAK1_Y797, pTyr-Var library phosphosite peptide] |  |  |  |  | Phosphorylation Rate [6]: 0.407 s⁻¹
6 | CPPKVYELMIA [ABL2_Y515_R519I] |  | 0.2175 | -0.2414 | -0.0581 | Screen [1]: 0.5796
7 | MKDLTYSSLCF [ALOX5_Y446_A447S] | 0.1056 | 1.165 | 0.1163 | 0.3665 | 
8 | DNKALYDICFR [TUBB3_Y208_E205K] |  |  |  |  | Screen [1, 13]: -0.8548; Screen [3, 12]: -1.219; Screen (variant relative to reference peptide, measured in the pTyr-Var library screen) [4]: -0.6777; Screen [5, 14]: -1.114
9 | IQRSLYDCPAS [PDGFRA_Y762_R764C] |  | 2.142 | 2.32 | 2.388 | 
10 | Ac-LFSEYASVQV-NH2 [SIRPA_Y496_P491L, pTyr-Var library variant peptide, non-canonical c-Abl substrate] |  |  |  | 0.1232 | Phosphorylation Rate [6]: 0.182 s⁻¹; Screen [1, 13]: -0.1318; Screen [3, 12]: 0.5649; Screen (variant relative to reference peptide, measured in the pTyr-Var library screen) [4]: 0.2454
11 | Ac-EGWQVYRLGAR-NH2 [MISP_Y95, pTyr-Var library phosphosite peptide, non-canonical c-Src substrate] |  |  |  |  | Phosphorylation Rate [7]: 0.701 s⁻¹
12 | RQQQDYWLMDV [ANPEP_Y600_I603M] |  | -1.652 | -0.3 | -0.2938 | 
13 | VFDHIYTTQSD [RET_Y928_L923V] |  |  |  | -2.18 | Screen [1, 13]: -1.024; Screen [3, 12]: -1.691
14 | VVTGPYEKPSL [KIR3DS1_Y221_L220P] |  | -4.323 | -2.822 | -3.858 | 
15 | QPDLLYDHIQP [TRRAP_Y862_F860L] |  |  |  |  | Screen [1, 13]: 0.81; Screen [3, 12]: 1.063; Screen (variant relative to reference peptide, measured in the pTyr-Var library screen) [4]: 1.53; Screen [5, 14]: 2.501
16 | AVIADYMFWLG [SPATA16_Y290_M286V] |  |  |  | -0.2895 | Screen [3, 12]: -0.04255; Screen (variant relative to reference peptide, measured in the pTyr-Var library screen) [4]: -0.3108
17 | LQEQNYPAVDS [FAM114A1_Y115_L116P] |  | -1.861 | -2.139 | -0.9591 | 
18 | VNNLVYENING [FRS2_Y306_K303N] | 1.603 | 1.713 | 1.417 | 2.712 | 

Row | Molecule | Screen [1, 9] | Screen [3, 10] | Screen [4] | Screen [5, 11] | further results
19 | LPPREYVVVPS [CAPN1_Y494_G492R] |  | 0.6785 | -0.6929 | -0.3372 | 
20 | QGFDTYFGFLL [ARSB_Y165_R160Q_YF] | 0.07217 | 0.9524 | 0.1277 | 0.8549 | 
21 | QNTGNYFDLFG [PTPN11_Y62_D61N_YF] |  |  | 0.2097 | 0.1444 | Screen [1, 13]: -1.162
22 | AEFGLYAAMVR [VSX2_Y222_G223A_YF] |  |  |  |  | Screen [1, 13]: -0.7281; Screen ([2]; sheet "Abl", effect of variant peptide relative to its reference peptide in pTyr-Var library screen (enrichment)): 2.617; Screen (variant relative to reference peptide, measured in the pTyr-Var library screen) [4]: 1.956; Screen [5, 14]: 1.609
23 | FGMQLYQKFMH [GRB14_Y347_N349K_YF] | -0.6929 | -1.436 | -1.356 | -1.587 | 
24 | QAPPIYLDVLG [NTRK1_Y791_V790I] |  | 2.26 | 1.721 | 1.355 | Screen [1, 13]: 1.261
25 | Ac-VASSLYDIFAR-NH2 [GLB1_Y294_L297F, pTyr-Var library variant phosphosite peptide] | 1.173 | 0.6922 |  | 0.8382 | Phosphorylation Rate [7]: 1.477 s⁻¹
26 | FEELVYETVRV [FSHB_Y76_K72E] | -0.8103 | -0.5222 | -1.125 | -0.7932 | 
27 | MAPQMYESHLP [NCAPD2_Y6_F8S] |  | -1.098 | -3.091 | -2.267 | 
28 | PIAPVYAPSMV [ACAT1_Y331_A333P] |  | 1.079 | -0.08214 | 0.3731 | Screen [1]: -0.325
29 | HNVAIYEGFAL [ACTC1_Y168_P166A_YF] | -0.2279 | -0.3735 | -1.018 | -1.285 | 
30 | ASFSLYEPAKM [MKI67_Y340_P338S] | -1.253 | -0.8096 | -1.581 | -1.997 | 
31 | QMVGMYAFSFM [AVPR2_Y124_S126F_YF] | -0.3615 | 2.024 | 0.9458 | 0.9949 | 
32 | WASGIYFVPKG [APBB1IP_Y340_R335W_YF] | 0.1676 | 2.226 | 1.089 | 2.1 | 
33 | B1 |  |  |  |  | binding result [8]: binds
34 | B2 |  |  |  |  | binding result [8]: binds
35 | B3 |  |  |  |  | binding result [8]: binds
